Where two headings read alike, the source gives them in different places.
Tests used:
[1] = Single pass intestinal perfusion with portal vein blood collection; assay type: in vivo, rat; settings: for Pe-mes (mesenteric permeability): rat in situ single pass intestinal perfusion, portal vein plasma, pH 7.5 buffer
Protocol: Male albino Sprague-Dawley rats, 9-10 weeks old and weighing 250-400 g were used in the study. Prior to each experiment, the rats were fasted for 18 h with free access to water. The rats were anesthetized with an i.m. injection of ketamine/xylazinelbutorphanol (87, 6, and 0.2 mg/kg body weight, respectively). The abdomen was opened by a midline incision of 4-5 cm. A suitable intestinal segment of approximately 10-20 cm was cannulated on two ends and connected to a syringe pump that guided the solution through a water bath of 37° C. This isolated segment was then rinsed with buffer at the respective pH at a flow-rate of 0.5 ml/min in order to clean out any residual debris. A 10 mM HEPES (pH 7.5) buffer containing 135 mM NaCl, 5 mM KCl and 0.01% PEG 4000 was used for the perfusion buffer. The intestinal segments were perfused at a flow rate of approximately […] with these buffers containing test drug and ^14C-PEG 4000 as a non-absorbable marker for measuring water flux. […] Sample analysis for ^14C (PEG-4000) was performed by scintillation counting. For these studies, we also took blood from the portal vein (prehepatic) as described below. After a segment of intestine was cannulated, the portal vein was then immediately cannulated using a 24-gauge Angeocath catheter (Becton Dickinson, Sandy, Utah). The cannula was secured in place using cyanoacrylate glue or surgical tape and connected to an approximately 35 cm long Silastic tubing, which allowed blood to flow into vials placed about 25 cm below the mesenteric vein. The single-pass intestinal perfusion was initiated at this time. Blood flowing out of the mesenteric vein from the isolated intestinal segment was collected directly into vials, centrifuged immediately and plasma was separated and stored at −80° C.
Rat plasma samples were acidified and processed with solid phase extraction. Briefly, a cation exchange solid-phase cartridge (MCX, 30 mg/i. cc, Waters) was activated with 1.0 ml of methanol and equilibrated with 1.0 ml of water. A 500 μl aliquot of rat plasma was acidified and loaded onto the cartridge. After washing with 1.0 ml of 0.1 N HCl and 1.0 ml methanol, the compounds were eluted with 1 ml of 5% NH4OH in methanol. The solvent was evaporated under vacuum and the residue was reconstituted in 200 μl of water. Samples were analyzed using a LC-MS/MS system (Micromass Quattro II, HP 1100). Ten μl of sample was separated with a Cs column (2.1×150 mm) using a mobile phase of 5-10% acetonitrile:water containing 0.5% formic acid.
From the plasma concentration of compound, the mesenteric permeability was determined by substitution into Eq. (1), Flux=(A)(Pe-mes)(Ci) Eq. (1) where Flux is equal to the portal blood flow (estimated at 1 ml/min in the rat) X the steady state mesenteric blood concentration of cidofovir-based compound, A is the absorptive area of the intestine (estimated at 12.56 cm^2 in the rat intestine), Pe-mes is the mesenteric permeability (cm/s), and Ci is the starting concentration of the drug in the perfusate ([…]).

[2] = molecular target: T1, hPepT1 (Homo sapiens, UniProt P46059); assay: Competitive binding (3H Gly-Sar uptake inhibition) in hPepT1 over-expressing DC5 cells; assay type: cell-based; settings: for affinity for PepT1: DC5 cells over-expressing hPepT1
T1 construct: expressed in transfected cells; host or cells: DC5 cells (hPepT1 over-expressing cell line)
T1 sequence (P46059 1-708): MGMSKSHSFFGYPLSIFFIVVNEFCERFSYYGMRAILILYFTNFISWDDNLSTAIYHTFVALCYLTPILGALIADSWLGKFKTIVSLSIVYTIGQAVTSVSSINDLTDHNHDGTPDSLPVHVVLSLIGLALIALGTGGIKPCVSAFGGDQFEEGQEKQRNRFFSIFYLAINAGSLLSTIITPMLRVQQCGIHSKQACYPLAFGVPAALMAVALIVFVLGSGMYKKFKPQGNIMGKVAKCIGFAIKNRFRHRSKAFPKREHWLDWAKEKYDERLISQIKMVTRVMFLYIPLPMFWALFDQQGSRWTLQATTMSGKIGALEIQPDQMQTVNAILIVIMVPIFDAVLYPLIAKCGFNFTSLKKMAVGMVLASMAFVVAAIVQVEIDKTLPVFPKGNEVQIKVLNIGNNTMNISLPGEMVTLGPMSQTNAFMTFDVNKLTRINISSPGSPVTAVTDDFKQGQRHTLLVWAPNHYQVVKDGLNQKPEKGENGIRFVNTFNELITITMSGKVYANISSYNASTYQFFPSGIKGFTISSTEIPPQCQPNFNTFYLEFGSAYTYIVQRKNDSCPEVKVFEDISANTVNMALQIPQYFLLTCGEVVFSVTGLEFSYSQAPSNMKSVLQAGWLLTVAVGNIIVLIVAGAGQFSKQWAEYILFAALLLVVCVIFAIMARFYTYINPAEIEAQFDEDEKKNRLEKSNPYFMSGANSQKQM
Protocol: Ki values for the cidofovir compounds were determined in the hPepT1 over-expressing cell line (DC5) using ^3H glycine-sarcosine (Gly-Sar). DC5 cells were plated (12,000 cells/well) in 96-well tissue culture plates (Falcon) and allowed to grow for 4 days. The cells were washed once with 200 μl of uptake buffer and aspirated. The plates were cooled to 4° C. and 25 μl of uptake buffer containing 50 μM Gly-Sar (0.5 μCi/ml) was added. The uptake buffer also contained the test cidofovir-based compounds over a range of concentrations. Uptake was initiated by placing the plate in a shaker water bath (37° C.) and terminated at 10 min by rapid washing with multiple changes of 4° C. PBS (Sigma). The radioactive peptide was extracted from the cell layer with 200 μl of methanol:water (1:1) and counted in 4 ml of CytoScint ESTM scintillation cocktail (ICN). Non-linear regression analysis of the data was used to determine the IC50 using the solver function in Microsoft Excel.

[3] = pH 3-5
[4] = cell and tissue homogenates
[5] = in vivo; cited from earlier work
[6] = DC5 cells, 50 μM 3H Gly-Sar, 10 min, 37° C., read-out: Gly-Sar inhibition, Ki

SMILES | Pe-mes (mesenteric permeability) [1] | Ki [2] | affinity for PepT1 [2] | Ki [2, 6] | also measured
COC(=O)[C@H](COP1(=O)CO[C@@H](Cn2ccc(N)nc2=O)CO1)NC(=O)[C@@H](N)C(C)C (mixture of isomers) [Compound 4, cHPMPC-Val-Ser(OMe)] | 1.18 cm/s × 10^5 | 2.7 ± 0.1 mM | significant affinity |  | transport on co-dosing with bestatin ([1]; co-dosing with the aminopeptidase inhibitor bestatin): enhanced transport; transport on co-perfusion with Gly-Sar ([1]; in situ perfusion model, co-perfusion with Gly-Sar): almost completely suppressed; transport vs. the parent drug ([1]; rat model): enhanced transport; stability in buffer [3]: stable; release of active drug [4]: rapidly released the active drug
COC(=O)[C@H](COP1(=O)CO[C@@H](Cn2ccc(N)nc2=O)CO1)NC(=O)[C@@H](N)CC(C)C (mixture of isomers) [Compound 7, cHPMPC-Leu-Ser(OMe)] | 0.48 cm/s × 10^5 |  | significant affinity | 5.4 ± 0.2 mM | 
Nc1ccn(C[C@@H](CO)OCP(=O)(O)O)c(=O)n1 [Cidofovir, (S)-1-(3-hydroxy-2-phosphonylmethoxypropyl)cytosine, reference compound] | 0.052 cm/s × 10^5 |  |  | 10.8 ± 0.3 mM | 
COC(=O)C(COP1(=O)COC(Cn2ccc(N)nc2=O)CO1)NC(=O)C(C)N (stereo not shown) [Compound 6, cHPMPC-Ala-Ser(OMe)] | 0.98 cm/s × 10^5 | 3.4 ± 0.2 mM | significant affinity |  | 
Nc1ccn(C[C@H]2COP(=O)(O)CO2)c(=O)n1 [Cyclic cidofovir, reference compound] | 0.003 cm/s × 10^5 |  |  | 10.7 ± 0.2 mM | 
CC(C)[C@H](N)C(=O)OCCOCn1cnc2c(=O)[nH]c(N)nc21 [Valacyclovir] |  |  |  |  | bioavailability enhancement compared to parent drug acyclovir [5]: 3- to 5 fold
